± gives the uncertainty stated by the source.
Experiment: xn = mol fraction of the nth substance listed

C#CCO + O
viscosity [mPa·s]
Settings	303.15 K	308.15 K	313.15 K	318.15 K	323.15 K
101 kPa, x1 = 0.1	1.094 ± 0.01	0.9708 ± 0.0092	0.8728 ± 0.0084	0.7923 ± 0.0077	0.7208 ± 0.0071
101 kPa, x1 = 0.166	1.191 ± 0.011	1.06 ± 0.01	0.9534 ± 0.0091	0.8633 ± 0.0083	0.7845 ± 0.0076
101 kPa, x1 = 0.3	1.275 ± 0.012	1.135 ± 0.011	1.023 ± 0.0097	0.9273 ± 0.0088	0.845 ± 0.0081
101 kPa, x1 = 0.4	1.291 ± 0.012	1.157 ± 0.011	1.048 ± 0.0099	0.9513 ± 0.009	0.8707 ± 0.0083
101 kPa, x1 = 0.499	1.296 ± 0.012	1.165 ± 0.011	1.054 ± 0.0099	0.9624 ± 0.0091	0.8802 ± 0.0084
101 kPa, x1 = 0.599	1.309 ± 0.012	1.179 ± 0.011	1.069 ± 0.01	0.9758 ± 0.0092	0.8933 ± 0.0085
101 kPa, x1 = 0.7	1.313 ± 0.012	1.188 ± 0.011	1.079 ± 0.01	0.9844 ± 0.0093	0.902 ± 0.0086
101 kPa, x1 = 0.801	1.327 ± 0.012	1.202 ± 0.011	1.092 ± 0.01	0.9977 ± 0.0094	0.9169 ± 0.0087
101 kPa, x1 = 0.899	1.33 ± 0.012	1.204 ± 0.011	1.095 ± 0.01	1 ± 0.0094	0.9179 ± 0.0087
101.32 kPa, x1 = 0.1138	–	0.9894 ± 0.016	0.8862 ± 0.015	0.7991 ± 0.013	0.7267 ± 0.012
101.32 kPa, x1 = 0.2351	–	1.105 ± 0.018	0.9927 ± 0.016	0.8936 ± 0.015	0.8222 ± 0.014
101.32 kPa, x1 = 0.3145	–	1.149 ± 0.018	1.034 ± 0.017	0.9365 ± 0.015	0.8508 ± 0.014
101.32 kPa, x1 = 0.4174	–	1.171 ± 0.019	1.059 ± 0.017	0.9551 ± 0.016	0.8741 ± 0.015
101.32 kPa, x1 = 0.5002	–	1.186 ± 0.019	1.069 ± 0.017	0.9676 ± 0.016	0.8856 ± 0.015
101.32 kPa, x1 = 0.61	–	1.194 ± 0.019	1.077 ± 0.017	0.9877 ± 0.016	0.8958 ± 0.015
101.32 kPa, x1 = 0.7185	–	1.2 ± 0.019	1.085 ± 0.018	0.9924 ± 0.016	0.9072 ± 0.015
101.32 kPa, x1 = 0.8223	–	1.209 ± 0.02	1.095 ± 0.018	1 ± 0.017	0.9191 ± 0.015
101.32 kPa, x1 = 0.9	–	1.216 ± 0.02	1.107 ± 0.018	1.007 ± 0.017	0.9223 ± 0.015

O=S(Cl)Cl + Cc1cc(C)cc(C)c1
298.15 K, 101 kPa
Settings	viscosity [mPa·s]
x1 = 0.234	0.685 ± 0.018
x1 = 0.314	0.6908 ± 0.018
x1 = 0.432	0.6952 ± 0.018
x1 = 0.571	0.6939 ± 0.018
x1 = 0.743	0.677 ± 0.017
x1 = 0.9	0.6495 ± 0.017

O=S(Cl)Cl + CCOC(C)=O
298.15 K, 101 kPa
Settings	viscosity [mPa·s]
x1 = 0.225	0.4911 ± 0.013
x1 = 0.316	0.5174 ± 0.013
x1 = 0.534	0.5759 ± 0.015
x1 = 0.7	0.6117 ± 0.016
x1 = 0.83	0.6177 ± 0.016

C1COCO1 + CCO
303.15 K, 101 kPa
Settings	viscosity [mPa·s]
x1 = 0.06463	0.898 ± 0.021
x1 = 0.1346	0.838 ± 0.021
x1 = 0.2104	0.7691 ± 0.021
x1 = 0.2931	0.6852 ± 0.02
x1 = 0.3834	0.6333 ± 0.02
x1 = 0.4826	0.6121 ± 0.02
x1 = 0.592	0.591 ± 0.02
x1 = 0.7133	0.5886 ± 0.02
x1 = 0.8484	0.569 ± 0.02

C1COCO1 + CO
303.15 K, 101 kPa
Settings	viscosity [mPa·s]
x1 = 0.04585	0.5056 ± 0.02
x1 = 0.09758	0.5088 ± 0.02
x1 = 0.1564	0.516 ± 0.02
x1 = 0.2238	0.5272 ± 0.02
x1 = 0.3019	0.5382 ± 0.02
x1 = 0.3935	0.5516 ± 0.02
x1 = 0.5023	0.5642 ± 0.02
x1 = 0.6337	0.5454 ± 0.02
x1 = 0.7956	0.5446 ± 0.02

C1COCO1 + c1ccccc1
101.3 kPa
Settings	viscosity [mPa·s]
298.15 K, x2 = 0.0968	0.5944 ± 0.0055
298.15 K, x2 = 0.199	0.597 ± 0.0055
298.15 K, x2 = 0.3032	0.5997 ± 0.0055
298.15 K, x2 = 0.4021	0.6022 ± 0.0055
298.15 K, x2 = 0.505	0.6045 ± 0.0055
298.15 K, x2 = 0.6016	0.6064 ± 0.0055
298.15 K, x2 = 0.704	0.6079 ± 0.0055
298.15 K, x2 = 0.7993	0.6089 ± 0.0055
298.15 K, x2 = 0.8946	0.6094 ± 0.0056
313.15 K, x2 = 0.1006	0.5001 ± 0.0048
313.15 K, x2 = 0.1994	0.5003 ± 0.0048
313.15 K, x2 = 0.299	0.5005 ± 0.0048
313.15 K, x2 = 0.3987	0.5005 ± 0.0048
313.15 K, x2 = 0.5003	0.5004 ± 0.0048
313.15 K, x2 = 0.5985	0.4998 ± 0.0048
313.15 K, x2 = 0.6993	0.4988 ± 0.0047
313.15 K, x2 = 0.7998	0.4976 ± 0.0047
313.15 K, x2 = 0.8987	0.4959 ± 0.0047

C1COCO1 + CC#N
viscosity [mPa·s], 101 kPa
Settings	x2 = 0.167	x2 = 0.3109	x2 = 0.4361	x2 = 0.5461	x2 = 0.6435	x2 = 0.7302	x2 = 0.8081	x2 = 0.8783	x2 = 0.942
298.15 K	0.5233 ± 0.014	0.4737 ± 0.012	0.436 ± 0.011	0.4046 ± 0.01	0.3783 ± 0.0099	0.3591 ± 0.0094	0.3444 ± 0.009	0.338 ± 0.0088	0.3366 ± 0.0088
308.15 K	0.4618 ± 0.012	0.4235 ± 0.011	0.3913 ± 0.01	0.3646 ± 0.0095	0.3419 ± 0.0089	0.3251 ± 0.0085	0.3134 ± 0.0082	0.3077 ± 0.0081	0.307 ± 0.0081
318.15 K	0.4132 ± 0.011	0.3791 ± 0.0099	0.3502 ± 0.0092	0.3263 ± 0.0085	0.3065 ± 0.008	0.291 ± 0.0076	0.2817 ± 0.0074	0.278 ± 0.0073	0.2797 ± 0.0074

CN(C)P(=O)(N(C)C)N(C)C + CC(C)O
303.15 K, 101.3 kPa
Settings	viscosity [mPa·s]
x1 = 0.0867	1.855 ± 0.02
x1 = 0.1008	1.87 ± 0.021
x1 = 0.1839	1.937 ± 0.023
x1 = 0.2608	1.991 ± 0.026
x1 = 0.3481	2.075 ± 0.03
x1 = 0.4017	2.136 ± 0.033
x1 = 0.5056	2.279 ± 0.039
x1 = 0.6052	2.407 ± 0.045
x1 = 0.705	2.547 ± 0.053
x1 = 0.7928	2.668 ± 0.059
x1 = 0.8899	2.791 ± 0.067

O=S(Cl)Cl + CCOCC
298.15 K, 101 kPa
Settings	viscosity [mPa·s]
x1 = 0.334	0.3365 ± 0.0088
x1 = 0.845	0.548 ± 0.014

C[N+](C)(C)CCO.O=C([O-])CCCC[C@@H]1SC[C@@H]2NC(=O)N[C@@H]21 + O
viscosity [mPa·s], 100 kPa
Settings	x1 = 0.0009415	x1 = 0.001329	x1 = 0.001899	x1 = 0.002797	x1 = 0.003833	x1 = 0.005474
293.15 K	1.044 ± 0.022	1.058 ± 0.022	1.079 ± 0.023	1.111 ± 0.023	1.146 ± 0.024	1.2 ± 0.025
298.15 K	0.927 ± 0.019	0.939 ± 0.02	0.957 ± 0.02	0.984 ± 0.021	1.014 ± 0.021	1.06 ± 0.022
303.15 K	0.829 ± 0.017	0.84 ± 0.018	0.855 ± 0.018	0.879 ± 0.018	0.905 ± 0.019	0.944 ± 0.02
308.15 K	0.747 ± 0.016	0.756 ± 0.016	0.77 ± 0.016	0.79 ± 0.017	0.812 ± 0.017	0.846 ± 0.018
313.15 K	0.678 ± 0.014	0.686 ± 0.014	0.698 ± 0.015	0.716 ± 0.015	0.735 ± 0.015	0.765 ± 0.016

CCCCCCCC/C=C\CCCCCCCC(=O)OCC(COC(=O)CCCCCCC/C=C\CCCCCCCC)OC(=O)CCCCCCC/C=C\CCCCCCCC + Cc1ccc(C)cc1
viscosity [mPa·s], 101.33 kPa
Settings	293.15 K	298.15 K	303.15 K	308.15 K	313.15 K
x1 = 0.000755	0.6573 ± 0.017	0.6175 ± 0.017	0.5813 ± 0.016	0.5465 ± 0.015	0.5168 ± 0.014
x1 = 0.001496	0.6699 ± 0.018	0.6292 ± 0.017	0.5923 ± 0.016	0.5567 ± 0.015	0.5261 ± 0.015
x1 = 0.004118	0.7209 ± 0.019	0.6762 ± 0.018	0.6359 ± 0.017	0.5968 ± 0.016	0.5636 ± 0.015
x1 = 0.007318	0.7825 ± 0.02	0.7329 ± 0.019	0.6883 ± 0.018	0.6454 ± 0.017	0.609 ± 0.016
x1 = 0.01139	0.8597 ± 0.022	0.8042 ± 0.021	0.7541 ± 0.019	0.706 ± 0.018	0.665 ± 0.018
x1 = 0.01526	0.9594 ± 0.024	0.8955 ± 0.023	0.8379 ± 0.021	0.7833 ± 0.02	0.7368 ± 0.019
x1 = 0.02469	1.185 ± 0.029	1.101 ± 0.027	1.027 ± 0.025	0.9558 ± 0.024	0.8959 ± 0.023
x1 = 0.02908	1.291 ± 0.031	1.197 ± 0.029	1.115 ± 0.027	1.037 ± 0.026	0.9704 ± 0.024
x1 = 0.03513	1.421 ± 0.034	1.316 ± 0.032	1.222 ± 0.03	1.134 ± 0.028	1.06 ± 0.026
x1 = 0.04678	1.777 ± 0.042	1.637 ± 0.038	1.513 ± 0.036	1.399 ± 0.033	1.302 ± 0.031
x1 = 0.06075	2.241 ± 0.051	2.061 ± 0.048	1.885 ± 0.044	1.733 ± 0.041	1.605 ± 0.038

CC(=O)c1ccccc1 + CCCC(C)O
298.15 K, 101 kPa
Settings	viscosity [mPa·s]
x1 = 0.2502	1.875 ± 0.014
x1 = 0.7547	1.605 ± 0.012

O=C1CCC[NH+]1C1CCCCC1.O=S(=O)([O-])c1ccccc1 + O
Settings	viscosity [mPa·s]
303.15 K, 101 kPa, x1 = 0.01351	1.405 ± 0.016
